These results are taken from patent publication US20240101540A1, “TARGETED PROTEIN DEGRADATION OF PARP14 FOR USE IN THERAPY” (Ribon Therapeutics, Inc., priority 2022, published 2024).

SMILES strings stand for the structures. Structures can show the parent of a compound that is named as a salt.

The target of the assay is T1, HiBiT tagged PARP14 (Homo sapiens, UniProt Q460N5).
T1 construct: engineered to contain a HiBiT tag on both alleles of the PARP14 gene; endogenous in cells; host or cells: Jurkat cells stably transfected with LgBiT (Promega), PARP14 locus edited by CRISPR/Cas9
T1 sequence (Q460N5 whole entry): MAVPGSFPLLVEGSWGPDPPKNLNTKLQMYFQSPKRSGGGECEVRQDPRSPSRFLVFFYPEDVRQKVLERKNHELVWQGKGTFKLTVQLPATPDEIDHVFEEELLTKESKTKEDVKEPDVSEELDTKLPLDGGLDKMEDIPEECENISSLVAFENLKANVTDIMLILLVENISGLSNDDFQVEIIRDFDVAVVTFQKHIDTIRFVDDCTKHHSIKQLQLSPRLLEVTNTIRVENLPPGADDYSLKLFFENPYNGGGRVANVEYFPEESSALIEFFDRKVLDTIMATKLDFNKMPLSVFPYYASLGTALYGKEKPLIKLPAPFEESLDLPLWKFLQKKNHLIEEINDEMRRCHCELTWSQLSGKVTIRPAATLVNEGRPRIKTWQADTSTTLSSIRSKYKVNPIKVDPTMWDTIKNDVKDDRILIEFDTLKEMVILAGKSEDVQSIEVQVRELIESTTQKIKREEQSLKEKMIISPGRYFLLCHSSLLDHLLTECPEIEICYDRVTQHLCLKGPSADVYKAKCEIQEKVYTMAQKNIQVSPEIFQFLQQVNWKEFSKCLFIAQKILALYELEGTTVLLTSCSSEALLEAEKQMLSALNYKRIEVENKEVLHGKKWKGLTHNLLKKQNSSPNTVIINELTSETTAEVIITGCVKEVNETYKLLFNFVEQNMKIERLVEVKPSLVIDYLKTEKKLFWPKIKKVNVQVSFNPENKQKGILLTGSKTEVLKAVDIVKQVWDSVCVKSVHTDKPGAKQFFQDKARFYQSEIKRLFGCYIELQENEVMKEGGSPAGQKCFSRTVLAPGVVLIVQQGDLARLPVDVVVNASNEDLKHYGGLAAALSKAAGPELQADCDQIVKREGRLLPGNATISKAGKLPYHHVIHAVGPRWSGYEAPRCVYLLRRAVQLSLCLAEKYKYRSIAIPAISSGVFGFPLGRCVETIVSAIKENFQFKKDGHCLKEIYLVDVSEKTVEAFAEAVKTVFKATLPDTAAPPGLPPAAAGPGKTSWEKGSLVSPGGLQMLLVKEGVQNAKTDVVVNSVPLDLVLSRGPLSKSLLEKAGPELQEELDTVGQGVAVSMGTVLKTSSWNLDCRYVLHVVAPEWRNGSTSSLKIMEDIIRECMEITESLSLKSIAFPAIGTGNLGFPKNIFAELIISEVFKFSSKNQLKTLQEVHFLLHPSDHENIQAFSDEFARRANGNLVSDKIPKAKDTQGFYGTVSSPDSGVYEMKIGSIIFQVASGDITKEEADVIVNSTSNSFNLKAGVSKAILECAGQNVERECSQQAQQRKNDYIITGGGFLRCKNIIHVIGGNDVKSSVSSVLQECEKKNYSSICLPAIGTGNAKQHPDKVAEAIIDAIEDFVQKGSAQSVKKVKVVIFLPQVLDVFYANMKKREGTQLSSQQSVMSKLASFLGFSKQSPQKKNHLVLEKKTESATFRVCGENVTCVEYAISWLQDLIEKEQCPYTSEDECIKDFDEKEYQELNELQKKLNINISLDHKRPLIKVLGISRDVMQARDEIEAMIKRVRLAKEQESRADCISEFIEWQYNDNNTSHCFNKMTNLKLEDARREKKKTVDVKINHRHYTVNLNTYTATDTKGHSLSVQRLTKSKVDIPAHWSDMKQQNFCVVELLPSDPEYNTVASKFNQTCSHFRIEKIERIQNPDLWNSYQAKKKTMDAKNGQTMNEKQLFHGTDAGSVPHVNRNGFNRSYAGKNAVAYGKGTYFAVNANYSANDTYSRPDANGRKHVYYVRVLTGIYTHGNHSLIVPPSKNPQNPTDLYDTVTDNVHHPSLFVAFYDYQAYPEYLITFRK
Nature of the assay: HiBiT assay for the degradation of PARP14 (HiBiT tagged PARP14 in LgBiT expressing Jurkat cells, 2 or 24 hours). Format: cell-based. The settings on record: Assay B (Example B): HiBiT tagged PARP14 degradation in LgBiT expressing Jurkat cells, read-out: DC50. Summed up:
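Luminescence from HiBiT–LgBiT complementation served as proxy for endogenous PARP14 level in edited LgBiT Jurkat cells (5,000/well). After 2 or 24 h compound exposure at 37 °C, signal read with Live Cell Substrate, expressed as % of 0.1% DMSO control, and fitted (4-parameter, free Hill) for DC50.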
With `O=C1CCC(Nc2ccc(N3CCN(CCN4CCC(COc5cc(F)c6c(=O)[nH]c(CC7CCC7)nc6c5)CC4)CC3)c(F)c2)C(=O)N1` (stereo not shown) [Example 106, 3-((4-(4-(2-(4-(((2-(cyclobutylmethyl)-5-fluoro-4-oxo-3,4-dihydroquinazolin-7-yl)oxy)methyl)piperidin-1-yl)ethyl)piperazin-1-yl)-3-fluorophenyl)amino)piperidine-2,6-dione formate], the DC50 was less than 30 nM. The same measure for `O=C1CCC(Nc2ccc(F)c(N3CCC(N4CC(N5CCC(COc6cc(F)c7c(=O)[nH]c(CSC8CCOCC8)nc7c6)CC5)C4)CC3)c2)C(=O)N1` (stereo not shown) [Example 236, 3-((4-fluoro-3-(4-(3-(4-(((5-fluoro-4-oxo-2-(((tetrahydro-2H-pyran-4-yl)thio)methyl)-3,4-dihydroquinazolin-7-yl)oxy)methyl)piperidin-1-yl)azetidin-1-yl)piperidin-1-yl)phenyl)amino)piperidine-2,6-dione]: less than 30 nM; for `O=C1CCC(Nc2ccc(N3CCC(C(=O)N4CC(N5CCC(COc6cc(F)c7c(=O)[nH]c(CC8CC8)nc7c6)CC5)C4)CC3)c(F)c2)C(=O)N1` (stereo not shown) [Example 178, 3-((4-(4-(3-(4-(((2-(cyclopropylmethyl)-5-fluoro-4-oxo-3,4-dihydroquinazolin-7-yl)oxy)methyl)piperidin-1-yl)azetidine-1-carbonyl)piperidin-1-yl)-3-fluorophenyl)amino)piperidine-2,6-dione]: less than 30 nM; for `O=C1CCN(c2cnc3cc(C4CCN(CCN5CCC(COc6cc(F)c7c(=O)[nH]c(CSC8CCOCC8)nc7c6)CC5)CC4)ccn23)C(=O)N1` [Example 211, 1-(7-(1-(2-(4-(((5-fluoro-4-oxo-2-(((tetrahydro-2H-pyran-4-yl)thio)methyl)-3,4-dihydroquinazolin-7-yl)oxy)methyl)piperidin-1-yl)ethyl)piperidin-4-yl)imidazo[1,2-a]pyridin-3-yl)dihydropyrimidine-2,4(1H,3H)-dione]: less than 30 nM.

Take `O=C1CCC(N2C(=O)c3ccc(N4CCC(N5CC(N6CCC(COc7cc(F)c8c(=O)[nH]c(CSC9CCOCC9)nc8c7)CC6)C5)CC4)cc3C2=O)C(=O)N1` (stereo not shown) [Example 191, 2-(2,6-dioxopiperidin-3-yl)-5-(4-(3-(4-(((5-fluoro-4-oxo-2-(((tetrahydro-2H-pyran-4-yl)thio)methyl)-3,4-dihydroquinazolin-7-yl)oxy)methyl)piperidin-1-yl)azetidin-1-yl)piperidin-1-yl)isoindoline-1,3-dione]: the DC50 is less than 30 nM. As for `Cn1nc(N2CCC(=O)NC2=O)c2ccc(C3CCN(C4CCN(CCOc5cc(F)c6c(=O)[nH]c(CSC7CCOCC7)nc6c5)CC4)CC3)cc21` [Example 187, 1-(6-(1′-(2-((5-fluoro-4-oxo-2-(((tetrahydro-2H-pyran-4-yl)thio)methyl)-3,4-dihydroquinazolin-7-yl)oxy)ethyl)-[1,4′-bipiperidin]-4-yl)-1-methyl-1H-indazol-3-yl)dihydropyrimidine-2,4(1H,3H)-dione diformate], the figure is less than 30 nM; as for `O=C1CCC(Nc2ccc(N3CCN(CCN4CCC(COc5cc(F)c6c(=O)[nH]c(CSC7CCOCC7)nc6c5)CC4)CC3)c(F)c2)C(=O)N1` (single isomer, unassigned) [Example 64a, 3-((3-fluoro-4-(4-(2-(4-(((5-fluoro-4-oxo-2-(((tetrahydro-2H-pyran-4-yl)thio)methyl)-3,4-dihydroquinazolin-7-yl)oxy)methyl)piperidin-1-yl)ethyl)piperazin-1-yl)phenyl)amino)piperidine-2,6-dione], less than 30 nM; as for `O=C1CCC(Nc2ccc(N3CCC(CN4CC(N5CCC(COc6cc(F)c7c(=O)[nH]c(CSC8CCOCC8)nc7c6)CC5)C4)CC3)c(F)c2)C(=O)N1` (stereo not shown) [Example 217, 3-((3-fluoro-4-(4-((3-(4-(((5-fluoro-4-oxo-2-(((tetrahydro-2H-pyran-4-yl)thio)methyl)-3,4-dihydroquinazolin-7-yl)oxy)methyl)piperidin-1-yl)azetidin-1-yl)methyl)piperidin-1-yl)phenyl)amino)piperidine-2,6-dione formate], less than 30 nM.

As for `O=C1CCC(NC(=O)c2ccc(N3CCC(N4CC(N5CCC(COc6cc(F)c7c(=O)[nH]c(CSC8CCOCC8)nc7c6)CC5)C4)CC3)cc2F)C(=O)N1` (stereo not shown) [Example 151, N-(2,6-dioxopiperidin-3-yl)-2-fluoro-4-(4-(3-(4-(((5-fluoro-4-oxo-2-(((tetrahydro-2H-pyran-4-yl)thio)methyl)-3,4-dihydroquinazolin-7-yl)oxy)methyl)piperidin-1-yl)azetidin-1-yl)piperidin-1-yl)benzamide], the half-maximal degradation concentration (DC50) is less than 30 nM.

As for `O=C1CCC(NC(=O)c2ccc(N3CCC(N4CCC(COc5cc(F)c6c(=O)[nH]c(CSC7CCOCC7)nc6c5)CC4)CC3)cc2F)C(=O)N1` (stereo not shown) [Example 149, N-(2,6-dioxopiperidin-3-yl)-2-fluoro-4-(4-(((5-fluoro-4-oxo-2-(((tetrahydro-2H-pyran-4-yl)thio)methyl)-3,4-dihydroquinazolin-7-yl)oxy)methyl)-[1,4′-bipiperidin]-1′-yl)benzamide], the half-maximal degradation concentration (DC50) was less than 30 nM. The same measure for `O=C1CCC(Nc2ccc(N3CCC(CN4CCC(COc5cc(F)c6c(=O)[nH]c(CSC7CCOCC7)nc6c5)CC4)CC3)c(F)c2)C(=O)N1` (stereo not shown) [Example 144, 3-((3-fluoro-4-(4-((4-(((5-fluoro-4-oxo-2-(((tetrahydro-2H-pyran-4-yl)thio)methyl)-3,4-dihydroquinazolin-7-yl)oxy)methyl)piperidin-1-yl)methyl)piperidin-1-yl)phenyl)amino)piperidine-2,6-dione]: less than 30 nM. For `O=C1CCC(Nc2ccc(N3CCC(N4CCC(COc5cc(F)c6c(=O)[nH]c(CCC7CCOCC7)nc6c5)CC4)CC3)c(F)c2)C(=O)N1` (stereo not shown) [Example 117, 3-((3-fluoro-4-(4-(((5-fluoro-4-oxo-2-(2-(tetrahydro-2H-pyran-4-yl)ethyl)-3,4-dihydroquinazolin-7-yl)oxy)methyl)-[1,4′-bipiperidin]-11′-yl)phenyl)amino)piperidine-2,6-dione], the 50% degradation concentration (DC50) was less than 30 nM. The same measure for `O=C1CCC(Nc2ccc(N3CCC(N4CC(N5CCC(COc6cc(F)c7c(=O)[nH]c(CSC8CCCCC8)nc7c6)CC5)C4)CC3)c(F)c2)C(=O)N1` (stereo not shown) [Example 237, 3-({4-[4-(3-{4-[({2-[(cyclohexylsulfanyl)methyl]-5-fluoro-4-oxo-3H-quinazolin-7-yl}oxy)methyl]piperidin-1-yl}azetidin-1-yl)piperidin-1-yl]-3-fluorophenyl}amino)piperidine-2,6-dione formate]: less than 30 nM; for `O=C1CCC(Nc2ccc(N3CCN(C(=O)N4CCC(COc5cc(F)c6c(=O)[nH]c(CSC7CCOCC7)nc6c5)CC4)CC3)c(F)c2)C(=O)N1` (stereo not shown) [Example 154, 3-((3-fluoro-4-(4-(4-(((5-fluoro-4-oxo-2-(((tetrahydro-2H-pyran-4-yl)thio)methyl)-3,4-dihydroquinazolin-7-yl)oxy)methyl)piperidine-1-carbonyl)piperazin-1-yl)phenyl)amino)piperidine-2,6-dione]: less than 30 nM; for `Cn1nc(N2CCC(=O)NC2=O)c2ccc(N3CCC(COc4cc(F)c5c(=O)[nH]c(COC6CCOCC6)nc5c4)CC3)cc21` [Example 184, 1-(6-(4-(((5-fluoro-4-oxo-2-(((tetrahydro-2H-pyran-4-yl)oxy)methyl)-3,4-dihydroquinazolin-7-yl)oxy)methyl)piperidin-1-yl)-1-methyl-1H-indazol-3-yl)dihydropyrimidine-2,4(1H,3H)-dione]: less than 30 nM. As for `O=C1CCC(Nc2ccc(N3CCC(C(=O)N4CC(N5CCC(COc6cc(F)c7c(=O)[nH]c(CSC8CCOCC8)nc7c6)CC5)C4)CC3)c(F)c2)C(=O)N1` (stereo not shown) [Example 152, 3-((3-fluoro-4-(4-(3-(4-(((5-fluoro-4-oxo-2-(((tetrahydro-2H-pyran-4-yl)thio)methyl)-3,4-dihydroquinazolin-7-yl)oxy)methyl)piperidin-1-yl)azetidine-1-carbonyl)piperidin-1-yl)phenyl)amino)piperidine-2,6-dione formate], the figure is less than 30 nM; as for `O=C1CCC(Nc2ccc(N3CCC(CN4CCC(N5CCC(COc6cc(F)c7c(=O)[nH]c(CSC8CCOCC8)nc7c6)CC5)CC4)CC3)c(F)c2)C(=O)N1` (stereo not shown) [Example 231, 3-((3-fluoro-4-(4-((4-(((5-fluoro-4-oxo-2-(((tetrahydro-2H-pyran-4-yl)thio)methyl)-3,4-dihydroquinazolin-7-yl)oxy)methyl)-[1,4′-bipiperidin]-1′-yl)methyl)piperidin-1-yl)phenyl)amino)piperidine-2,6-dione], less than 30 nM; as for `O=C1CCC(Nc2ccc(N3CCC(N4CC(N5CCC(COc6cc(F)c7c(=O)[nH]c(COC8CCOCC8)nc7c6)CC5)C4)CC3)c(F)c2)C(=O)N1` (single isomer, unassigned) [Example 136a, 3-((3-fluoro-4-(4-(3-(4-(((5-fluoro-4-oxo-2-(((tetrahydro-2H-pyran-4-yl)oxy)methyl)-3,4-dihydroquinazolin-7-yl)oxy)methyl)piperidin-1-yl)azetidin-1-yl)piperidin-1-yl)phenyl)amino)piperidine-2,6-dione], less than 30 nM. As to `Cn1nc(C2CCC(=O)NC2=O)c2cc(F)c(C3CCN(CCN4CCC(COc5cc(F)c6c(=O)[nH]c(CSC7CCOCC7)nc6c5)CC4)CC3)cc21` (stereo not shown) [Example 195, 3-(5-fluoro-6-(1-(2-(4-(((5-fluoro-4-oxo-2-(((tetrahydro-2H-pyran-4-yl)thio)methyl)-3,4-dihydroquinazolin-7-yl)oxy)methyl)piperidin-1-yl)ethyl)piperidin-4-yl)-1-methyl-1H-indazol-3-yl)piperidine-2,6-dione], the DC50 is less than 30 nM.
